Test results reported in ChEMBL document CHEMBL1743341, “Cytochrome p450 enzymes mechanism based inhibitors: common sub-structures and reactivity” (Curr Drug Metab, 2005).
Values belong to the compound of their own block, whether it stands above or below them.

Tests used:
[1] = biological target: Cytochrome P450 3A5 (Homo sapiens, UniProt P20815); assay: Mechanism based inhibition of human cytochrome P450 3A5; format: ADME
[2] = biological target: T1, Cytochrome P450 3A4 (Homo sapiens, UniProt P08684); assay: Mechanism based inhibition of human cytochrome P450 3A4 measured by lovastatin 6'-beta hydroxylase activity; format: ADME
T1 sequence (P08684 whole entry): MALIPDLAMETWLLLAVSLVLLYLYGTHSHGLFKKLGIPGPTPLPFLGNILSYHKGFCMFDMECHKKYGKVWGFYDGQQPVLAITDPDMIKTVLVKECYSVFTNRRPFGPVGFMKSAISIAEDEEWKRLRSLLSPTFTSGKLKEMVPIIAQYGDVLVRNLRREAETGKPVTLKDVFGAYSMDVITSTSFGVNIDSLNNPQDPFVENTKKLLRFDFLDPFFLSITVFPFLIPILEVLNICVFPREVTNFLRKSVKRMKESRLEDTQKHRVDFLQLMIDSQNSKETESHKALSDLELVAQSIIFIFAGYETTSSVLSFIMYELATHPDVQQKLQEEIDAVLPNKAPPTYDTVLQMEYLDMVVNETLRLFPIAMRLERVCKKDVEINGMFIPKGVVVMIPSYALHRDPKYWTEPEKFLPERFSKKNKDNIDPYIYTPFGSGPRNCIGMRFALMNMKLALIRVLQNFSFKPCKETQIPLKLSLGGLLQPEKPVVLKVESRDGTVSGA

[3] = biological target: T1, Cytochrome P450 3A4; assay: Mechanism based inhibition of human cytochrome P450 3A4 measured in vivo; format: ADME, organism-based
[4] = biological target: T2, CYP2B1 (Rattus norvegicus, UniProt P00176); assay: (§1) Mechanism based inhibition of rat cytochrome P450 CYP2B1 measured by 7-EFC O-deethylation activity; format: ADME; conditions: rat, probe 7-EFC (O-deethylation)
T2 sequence (P00176 whole entry): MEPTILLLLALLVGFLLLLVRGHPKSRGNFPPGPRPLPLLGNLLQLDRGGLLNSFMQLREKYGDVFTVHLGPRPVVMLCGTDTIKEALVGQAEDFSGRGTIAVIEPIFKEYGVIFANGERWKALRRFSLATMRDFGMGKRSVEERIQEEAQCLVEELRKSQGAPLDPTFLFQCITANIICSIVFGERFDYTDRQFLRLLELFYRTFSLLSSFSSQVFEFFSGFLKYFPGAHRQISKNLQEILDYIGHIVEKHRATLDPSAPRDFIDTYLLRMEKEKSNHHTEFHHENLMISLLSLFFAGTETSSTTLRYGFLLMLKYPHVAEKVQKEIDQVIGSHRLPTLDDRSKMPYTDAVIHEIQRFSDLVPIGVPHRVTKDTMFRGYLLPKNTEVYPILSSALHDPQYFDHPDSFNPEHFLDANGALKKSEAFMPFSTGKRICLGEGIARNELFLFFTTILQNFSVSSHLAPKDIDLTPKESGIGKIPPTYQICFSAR

[5] = biological target: T3, Cytochrome P450 2B1 (Rattus norvegicus, UniProt P00176); assay: as §1; format: ADME
T3 sequence (P00176 whole entry): T2 sequence (P00176 whole entry)

[6] = biological target: T4, Cytochrome P450 2E1 (Homo sapiens, UniProt P05181); assay: (§2) Mechanism based inhibition of human cytochrome P450 2E1; format: ADME
T4 sequence (P05181 whole entry): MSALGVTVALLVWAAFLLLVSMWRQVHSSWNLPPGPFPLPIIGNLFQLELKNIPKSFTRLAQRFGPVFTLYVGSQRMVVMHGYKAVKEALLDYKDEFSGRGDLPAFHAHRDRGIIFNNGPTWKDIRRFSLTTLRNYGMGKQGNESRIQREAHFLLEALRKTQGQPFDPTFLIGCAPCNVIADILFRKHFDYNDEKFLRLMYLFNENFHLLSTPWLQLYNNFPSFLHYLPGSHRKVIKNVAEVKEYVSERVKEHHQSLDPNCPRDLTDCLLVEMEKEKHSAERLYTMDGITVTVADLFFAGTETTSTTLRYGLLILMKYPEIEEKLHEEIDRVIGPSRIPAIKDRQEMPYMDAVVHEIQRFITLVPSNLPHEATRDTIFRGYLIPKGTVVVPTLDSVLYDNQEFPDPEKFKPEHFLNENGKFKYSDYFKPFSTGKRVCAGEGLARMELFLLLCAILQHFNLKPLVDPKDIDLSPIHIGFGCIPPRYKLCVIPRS

[7] = biological target: T4, Cytochrome P450 2E1; assay: as §2; format: ADME; remark: listed apart in the source
[8] = biological target: T5, Cytochrome P450 1A2 (Homo sapiens, UniProt P05177); assay: Mechanism based inhibition of human cytochrome P450 1A2 measured by 7-ethoxyresorufin O-deethylation (EROD)
T5 sequence (P05177 whole entry): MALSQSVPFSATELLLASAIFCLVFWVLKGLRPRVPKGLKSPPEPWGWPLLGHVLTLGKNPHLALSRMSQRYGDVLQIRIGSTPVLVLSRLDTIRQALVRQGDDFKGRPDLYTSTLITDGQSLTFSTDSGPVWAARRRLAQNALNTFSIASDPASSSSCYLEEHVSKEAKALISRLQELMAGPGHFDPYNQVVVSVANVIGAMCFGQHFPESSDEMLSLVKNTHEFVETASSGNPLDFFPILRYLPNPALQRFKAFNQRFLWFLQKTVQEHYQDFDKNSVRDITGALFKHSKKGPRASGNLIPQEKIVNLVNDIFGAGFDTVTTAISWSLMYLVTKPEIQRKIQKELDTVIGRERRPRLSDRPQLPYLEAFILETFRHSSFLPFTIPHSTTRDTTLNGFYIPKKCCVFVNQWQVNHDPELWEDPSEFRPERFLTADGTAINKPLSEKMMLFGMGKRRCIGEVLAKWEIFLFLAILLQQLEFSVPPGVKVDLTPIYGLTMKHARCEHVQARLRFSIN

[9] = biological target: T6, CYP3A4 (Homo sapiens, UniProt P08684); assay: (§3) Mechanism based inhibition of human cytochrome P450 3A4; format: ADME; conditions: human
T6 sequence (P08684 whole entry): as the sequence (P08684 whole entry) above

[10] = biological target: T1, Cytochrome P450 3A4; assay: as §3; format: ADME
[11] = biological target: T6, CYP3A4; assay: (§4) Mechanism based inhibition of human cytochrome P450 3A4 measured by nifedipine oxidation, omeprazole 3-hydroxylation and omeprazole sulfoxydation; format: ADME; conditions: human
[12] = biological target: T1, Cytochrome P450 3A4; assay: as §4; format: ADME
[13] = biological target: T1, Cytochrome P450 3A4; assay: Mechanism based inhibition of human cytochrome P450 3A4 measured by testosterone 6-beta hydroxylation; format: ADME
[14] = biological target: T1, Cytochrome P450 3A4; assay: Mechanism based inhibition of human cytochrome P450 3A4, partition ratio; format: ADME
[15] = biological target: T2, CYP2B1; assay: (§5) Mechanism based inhibition of rat cytochrome P450 CYP2B1 measured by 7-pentoxyresorufin […] activity (PROD); format: ADME; conditions: rat, probe 7-pentoxyresorufin ([…], PROD)
[16] = biological target: T3, Cytochrome P450 2B1; assay: as §5; format: ADME
[17] = biological target: T3, Cytochrome P450 2B1; assay: Mechanism based inhibition of rat cytochrome P450 CYP2B1 partition ratio; format: ADME

Chain of Cytochrome P450 3A5 (P20815 whole entry): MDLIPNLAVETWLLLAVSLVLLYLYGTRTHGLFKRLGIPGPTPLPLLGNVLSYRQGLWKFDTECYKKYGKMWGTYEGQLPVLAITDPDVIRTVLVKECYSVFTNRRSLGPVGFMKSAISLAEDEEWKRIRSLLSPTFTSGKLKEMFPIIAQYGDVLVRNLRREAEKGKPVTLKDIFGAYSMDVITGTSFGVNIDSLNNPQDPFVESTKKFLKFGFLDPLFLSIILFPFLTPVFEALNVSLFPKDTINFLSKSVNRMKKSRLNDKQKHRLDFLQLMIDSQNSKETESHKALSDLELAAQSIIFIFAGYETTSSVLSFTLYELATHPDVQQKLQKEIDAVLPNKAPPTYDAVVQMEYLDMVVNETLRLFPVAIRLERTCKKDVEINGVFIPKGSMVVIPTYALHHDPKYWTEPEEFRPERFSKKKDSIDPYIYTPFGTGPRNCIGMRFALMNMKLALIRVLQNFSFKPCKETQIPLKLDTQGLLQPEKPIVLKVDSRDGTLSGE

Compound: CC(C)(C)NC(=O)[C@@H]1C[C@@H]2CCCC[C@@H]2CN1C[C@@H](O)[C@H](Cc1ccccc1)NC(=O)[C@H](CC(N)=O)NC(=O)c1ccc2ccccc2n1
mechanism based inhibition [1]: Cytochrome P450 mechanistic inhibitor: PMID 15523003

Compound: CN1CCN(C(=O)N[C@@H](Cc2ccccc2)C(=O)N[C@H](/C=C/S(=O)(=O)c2ccccc2)CCc2ccccc2)CC1 [K-777]
mechanism based inhibition [2]: Cytochrome P450 mechanistic inhibitor: PMID 11038163

Compound: CN(C)c1ccc([C@H]2C[C@@]3(C)[C@@H](CC[C@@]3(O)/C=C\CO)[C@@H]3CCC4=CC(=O)CCC4=C32)cc1 [LILOPRISTONE]
mechanism based inhibition [3]: Cytochrome P450 mechanistic inhibitor: PMID 9697076

kinact [4]: 0.00467 s⁻¹
Ki [5]: 1.5 µM
Compound: C#CCN(C)CCCOc1ccc(Cl)cc1Cl [CLORGILINE]

Compound: CCN(CC)C(=S)SSC(=S)N(CC)CC
mechanism based inhibition [6]: Cytochrome P450 mechanistic inhibitor: PMID 1664256
mechanism based inhibition ([6]; human): Cytochrome P450 mechanistic inhibitor: PMID 10805064
mechanism based inhibition [7]: Cytochrome P450 mechanistic inhibitor: PMID 9695717

Ki [8]: 1.94 µM
Compound: Nc1c2c(nc3ccccc13)CCCC2 [TACRINE]

kinact [9]: 0.00267 s⁻¹
Ki [10]: 59 µM
kinact [11]: 0.001 s⁻¹
Ki [12]: 5.56 µM
Compound: C/C(=C\COc1c2ccoc2cc2oc(=O)ccc12)CCC(O)C(C)(C)O (configuration not stated) [DIHYDROXYBERGAMOTTIN]
mechanism based inhibition [13]: Cytochrome P450 mechanistic inhibitor: PMID 10859150

Partition ratio [14]: 41
Compound: CC(C)Nc1cccnc1N1CCN(C(=O)c2cc3cc(NS(C)(=O)=O)ccc3[nH]2)CC1 [DELAVIRDINE]

Compound: C#CCN(C)C(C)CCCCC.C#CCN[C@@H](C)CCCCC.C#CCN[C@H](C)CCCCC (configuration not stated)
kinact [15]: 0.00133 s⁻¹
Ki [16]: 0.8 µM

kinact [9]: 0.00167 s⁻¹
Ki [10]: 26 µM
Compound: CCc1c2c(nc3ccc(O)cc13)-c1cc3c(c(=O)n1C2)COC(=O)[C@]3(O)CC [7-ETHYL-10-HYDROXYCAMPTOTHECIN]

Compound: CN(C)c1ccc([C@H]2C[C@]3(C)[C@@H](CC[C@]3(O)CCCO)[C@@H]3CCC4=CC(=O)CCC4=C32)cc1 [ONAPRISTONE]
mechanism based inhibition [3]: Cytochrome P450 mechanistic inhibitor: PMID 9697076

partition_ratio [17]: 25
Compound: C#Cc1ccc2ccc(=O)oc2c1

Compound: O=C(NC(/C=C/S(=O)(=O)c1ccccc1)CCc1ccccc1)C(Cc1ccccc1)NC(=O)N1CCOCC1 (configuration not stated)
mechanism based inhibition [2]: Cytochrome P450 mechanistic inhibitor: PMID 11038163
